Among the data in patent publication US20100075965A1, “PI3 KINASE INHIBITORS AND METHODS OF THEIR USE” (Novartis AG, priority 2006, published 2010) are IC50 and EC50 values, retold here.

Like-named read-outs stand apart in the source and are kept apart here. A value given as a limit tells only on which side of the number the result lay.

The target in one assay is PI3 K Alpha (Homo sapiens, UniProt P42336). The experiment in a line: PI3 kinase phosphorylation assays (homogenous solution phase, one step solid phase, ATP depletion/KinaseGlo). It counts as biochemical. How it is done:
Compounds to be tested are dissolved in DMSO and directly distributed into 384-well flashplates at 1.25 μL per well. To start the reaction, 20 μL of 6 nM PI3 kinase are added into each well followed by 20 μL of 400 nM ATP containing a trace of radiolabeled ATP and 900 nM 1-alpha-phosphatidylinositol (PI). The plates are briefly centrifuged to remove any air gap. The reaction is performed for 15 minutes and then stopped by the addition of 20 μL of 100 mM EDTA. The stopped reaction is incubated overnight at RT to allow the lipid substrate to bind by hydrophobic interaction to the surface of the flashplate. The liquid in the wells is then washed away, and the labeled substrate is detected with scintillation counting.
This method is similar to Assay 1 except that the lipid substrate (1-alpha-phosphatidylinositol (PI)) is first dissolved in a coating buffer and incubated on flashplate at room temperature overnight to allow the lipid substrate to bind by hydrophobic interaction to the surface of the flashplate. Unbound substrate is then washed away. On the day of assay, 20 μL of 6 nM PI3 kinase are added into each well followed by 20 μL of 400 nM ATP containing trace of radiolabeled ATP. Compounds are added together with enzyme and ATP to the lipid-coated plates. The plates are briefly centrifuged to remove any air gap. The reaction is performed for two to three hours. The reaction is stopped by addition of 20 μL of 100 mM EDTA or by immediate plate washing. Phosphorylated lipid substrate is detected by scintillation counting.
Compounds to be tested are dissolved in DMSO and directly distributed into a black 384-well plate at 1.25 μL per well. To start the reaction, 25 μL of 10 nM PI3 kinase and 5 μg/mL 1-alpha-phosphatidylinositol (PI) are added into each well followed by 25 μL of 2 μM ATP. The reaction is performed until approx 50% of the ATP is depleted, and then stopped by the addition of 25 μL of KinaseGlo solution. The stopped reaction is incubated for 5 minutes and the remaining ATP is then detected via luminescence.
(In general: Kinase-Glo measures the ATP left after a reaction by luminescence.)

The next assay deals with A2780 cells. The experiment in a line: Viability assay in A2780 (Cell Titer Glo). It counts as cell-based, human. The conditions noted are these: Homo sapiens, A2780 cells, read-out: A2780 Cell prolif. EC50. Here is the method:
Cell viability was assessed with Cell Titer Glo assay, Promega. Cells were seeded in TC treated 96-well plates at a density of 1,000 (A2780 cells) per well in DMEM with 10% FBS, 1% Sodium Pyruvate, and 1% Penicillin Streptomycin for a minimum of 2 hrs prior to addition of compound. Test compounds were serially diluted (3 fold) in DMSO to 500× the final concentration. For each concentration of test compound, 2 μL (500×) aliquots of compound or 100% DMSO (control) were diluted in 500 μL of culture medium to 2× final concentration then diluted 1× on the cells. Cells were incubated for 72 hrs at 37° C., 5% CO2. After which Cell Titer Glo is added to determine viable cells, the assay was performed according to the manufacturer's instruction (Promega Corporation, Madison, Wis. USA). Each experimental condition was performed in duplicate. Raw data was imported in Abase and EC50s calculated with XL-fit data analysis software and are shown in Tables 1 and 2 in the column labeled “A2780 Cell prolif. EC50”.
On the technique in general: ATP-based viability assays read luminescence as a measure of living cells.

Sequence of PI3 K Alpha (P42336 whole entry): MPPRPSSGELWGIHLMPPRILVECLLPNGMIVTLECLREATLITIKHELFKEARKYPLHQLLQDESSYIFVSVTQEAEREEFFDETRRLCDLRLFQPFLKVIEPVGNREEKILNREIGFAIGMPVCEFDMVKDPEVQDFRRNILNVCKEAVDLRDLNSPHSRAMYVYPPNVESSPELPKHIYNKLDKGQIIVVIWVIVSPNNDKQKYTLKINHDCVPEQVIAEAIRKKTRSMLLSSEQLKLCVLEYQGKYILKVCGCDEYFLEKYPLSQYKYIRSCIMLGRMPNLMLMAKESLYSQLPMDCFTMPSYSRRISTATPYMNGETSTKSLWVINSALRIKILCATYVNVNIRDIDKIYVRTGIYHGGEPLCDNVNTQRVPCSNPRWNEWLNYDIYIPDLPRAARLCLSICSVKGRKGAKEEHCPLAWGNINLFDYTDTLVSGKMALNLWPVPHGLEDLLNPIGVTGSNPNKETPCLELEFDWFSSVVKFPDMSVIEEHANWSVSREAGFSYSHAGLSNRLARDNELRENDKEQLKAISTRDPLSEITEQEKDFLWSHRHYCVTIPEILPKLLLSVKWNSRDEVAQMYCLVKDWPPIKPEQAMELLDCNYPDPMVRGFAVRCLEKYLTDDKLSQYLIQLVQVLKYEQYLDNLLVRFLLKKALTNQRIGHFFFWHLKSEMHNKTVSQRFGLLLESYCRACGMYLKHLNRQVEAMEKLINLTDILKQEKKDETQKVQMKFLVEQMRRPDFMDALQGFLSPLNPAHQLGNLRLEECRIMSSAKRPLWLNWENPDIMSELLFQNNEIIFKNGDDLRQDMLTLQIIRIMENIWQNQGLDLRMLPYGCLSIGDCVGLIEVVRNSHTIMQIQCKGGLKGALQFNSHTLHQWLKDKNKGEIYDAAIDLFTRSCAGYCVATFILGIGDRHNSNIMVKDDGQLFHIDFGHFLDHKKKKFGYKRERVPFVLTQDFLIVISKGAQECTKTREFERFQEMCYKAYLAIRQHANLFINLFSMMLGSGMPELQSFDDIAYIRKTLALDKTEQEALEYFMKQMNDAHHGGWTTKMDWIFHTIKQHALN
Sequence of PI3 K Alpha (P27986 whole entry partner): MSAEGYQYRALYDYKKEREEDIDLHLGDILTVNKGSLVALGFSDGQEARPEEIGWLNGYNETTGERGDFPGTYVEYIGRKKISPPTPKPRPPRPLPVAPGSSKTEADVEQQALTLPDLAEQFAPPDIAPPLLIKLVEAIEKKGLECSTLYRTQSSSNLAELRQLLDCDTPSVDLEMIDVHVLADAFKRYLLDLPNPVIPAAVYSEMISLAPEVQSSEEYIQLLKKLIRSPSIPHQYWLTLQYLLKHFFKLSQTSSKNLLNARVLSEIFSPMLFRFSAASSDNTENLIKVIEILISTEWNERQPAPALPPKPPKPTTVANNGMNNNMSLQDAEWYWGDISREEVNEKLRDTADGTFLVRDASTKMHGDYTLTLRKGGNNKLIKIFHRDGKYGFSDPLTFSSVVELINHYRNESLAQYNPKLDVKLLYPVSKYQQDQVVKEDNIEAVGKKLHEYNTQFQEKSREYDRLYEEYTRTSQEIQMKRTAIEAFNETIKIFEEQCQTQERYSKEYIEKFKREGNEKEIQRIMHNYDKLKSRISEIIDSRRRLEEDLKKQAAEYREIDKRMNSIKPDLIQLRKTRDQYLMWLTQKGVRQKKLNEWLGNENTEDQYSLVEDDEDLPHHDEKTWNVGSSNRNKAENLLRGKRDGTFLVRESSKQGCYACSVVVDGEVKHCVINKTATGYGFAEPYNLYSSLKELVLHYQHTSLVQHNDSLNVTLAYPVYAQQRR

For `Nc1ncc(-c2ccc3nc(NC(=O)[C@@H]4CCCN4)cn3n2)cc1C(F)(F)F` [Example 129, (S)-N-(6-(6-amino-5-(trifluoromethyl)pyridin-3-yl)imidazo[1,2-b]pyridazin-2-yl)pyrrolidine-2-carboxamide], the IC50 on PI3 K Alpha (read-out: PI3K Alpha IC50) was below 1 µM. Moreover, the EC50 in the assay on A2780 cells is below 10 µM.

With `CC(C)(C)OC(=O)N1CCCCC1CCC(=O)Nc1cn2nc(-c3cnc(N)c(C(F)(F)F)c3)ccc2n1` (stereo not drawn) [Example 250, tert-butyl 2-(3-(6-(6-amino-5-(trifluoromethyl)pyridin-3-yl)imidazo[1,2-b]pyridazin-2-ylamino)-3-oxopropyl) piperidine-1-carboxylate], the half-inhibitory concentration (IC50) on PI3 K Alpha (read-out: PI3K Alpha IC50) was below 1 µM. Also, in the assay on A2780 cells, the EC50 was below 10 µM.

As to `COc1ccccc1-c1cc(-c2ccc3nc(NC(C)=O)cn3n2)cnc1N` [Example 212, N-(6-(6-amino-5-(2-methoxyphenyl)pyridin-3-yl)imidazo[1,2-b]pyridazin-2-yl)acetamide], the IC50 at PI3 K Alpha (read-out: PI3K Alpha IC50) was below 1 µM. Besides, the half-maximal effective concentration (EC50) in the assay on A2780 cells was below 10 µM.

As to `CC(=O)Nc1cn2nc(-c3cnc(N)c(CN4CCCC4)c3)ccc2n1` [Example 242, N-(6-(6-amino-5-(pyrrolidin-1-ylmethyl)pyridin-3-yl)imidazo[1,2-b]pyridazin-2-yl)acetamide], at PI3 K Alpha (read-out: PI3K Alpha IC50), the IC50 was below 1 µM. In the assay with A2780 cells, the EC50 is below 10 µM.

Regarding `CC(=O)Nc1cn2cc(-c3ccc(N)nc3F)ccc2n1` [Example 210, N-(6-(6-amino-2-fluoropyridin-3-yl)imidazo[1,2-a]pyridin-2-yl)acetamide], the IC50 on PI3 K Alpha (read-out: PI3K Alpha IC50) was below 1 µM. The EC50 in the assay on A2780 cells is below 10 µM.

Take `COCCOc1nc(-c2ccc3nc(NC(=O)C4CCN4C(C)=O)cn3c2)cnc1N` (stereo not drawn) [Example 249, 1-acetyl-N-(6-(5-amino-6-(2-methoxyethoxy)pyrazin-2-yl)imidazo[1,2-a]pyridin-2-yl)azetidine-2-carboxamide]: the IC50 on PI3 K Alpha (read-out: PI3K Alpha IC50) was below 1 µM. Moreover, the EC50 with A2780 cells is below 10 µM.

Take `CCC(=O)Nc1cn2cc(-c3cnc(N)c(OC)n3)ccc2n1` [Example 185, N-(6-(5-amino-6-methoxypyrazin-2-yl)imidazo[1,2-a]pyridin-2-yl)propionamide]: the IC50 at PI3 K Alpha (read-out: PI3K Alpha IC50) was below 1 µM. For the same molecule, in the assay on A2780 cells, the EC50 was below 10 µM.

In the case of `CC(C)(C)OC(=O)N1CCC(OCC(=O)Nc2cn3cc(-c4cnc(N)c(C(F)(F)F)c4)ccc3n2)CC1` [Example 251, tert-butyl 4-(2-(6-(6-amino-5-(trifluoromethyl)pyridin-3-yl)imidazo[1,2-a]pyridin-2-ylamino)-2-oxoethoxy) piperidine-1-carboxylate], the half-inhibitory concentration (IC50) on PI3 K Alpha (read-out: PI3K Alpha IC50) was below 1 µM. Further, the EC50 in the assay with A2780 cells is below 10 µM.

In the case of `COc1cc(-c2ccc3nc(NC(C)=O)cn3c2C)cnc1N` [Example 167, N-(6-(6-amino-5-methoxypyridin-3-yl)-5-methylimidazo[1,2-a]pyridin-2-yl)acetamide], the IC50 at PI3 K Alpha (read-out: PI3K Alpha IC50) is below 1 µM. In addition, the EC50 with A2780 cells was below 25 µM.

On to `C[C@@H](NC(=O)OC(C)(C)C)C(=O)Nc1cn2nc(-c3cnc(N)c(C(F)(F)F)c3)ccc2n1` [Example 253, (R)-tert-butyl 1-(6-(6-amino-5-(trifluoromethyl)pyridin-3-yl)imidazo[1,2-b]pyridazin-2-ylamino)-1-oxopropan-2-ylcarbamate], for which the IC50 on PI3 K Alpha (read-out: PI3K Alpha IC50) is below 1 µM. Also, in the assay with A2780 cells, the EC50 is below 10 µM.

For the molecule `N#Cc1ccc(C(=O)Nc2cn3cc(-c4cnc(N)c(C(F)(F)F)c4)ccc3n2)cc1` [Example 159, N-(6-(6-amino-5-(trifluoromethyl)pyridin-3-yl)imidazo[1,2-a]pyridin-2-yl)-4-cyanobenzamide], at PI3 K Alpha (read-out: PI3K Alpha IC50), the IC50 was below 1 µM. The EC50 with A2780 cells was below 25 µM.

Regarding `COc1nc(-c2cc(F)c3nc(NC(C)=O)cn3c2)cnc1N` [Example 145, N-(6-(5-amino-6-methoxypyrazin-2-yl)-8-fluoroimidazo [1,2-a]pyridin-2-yl)acetamide], at PI3 K Alpha (read-out: PI3K Alpha IC50), the IC50 was below 1 µM. Also, the EC50 in the assay with A2780 cells is below 25 µM.

For the molecule `CCOCC(=O)Nc1cn2cc(-c3cnc(N)c(C(F)(F)F)c3)ccc2n1` [Example 199, N-(6-(6-amino-5-(trifluoromethyl)pyridin-3-yl)imidazo[1,2-a]pyridin-2-yl)-2-ethoxyacetamide], the IC50 on PI3 K Alpha (read-out: PI3K Alpha IC50) is below 1 µM. The EC50 with A2780 cells was below 10 µM.

Consider `CCN1CC[C@@H](OCC(=O)Nc2cn3cc(-c4cnc(N)c(C(F)(F)F)c4)ccc3n2)C1` [Example 227, (R)-N-(6-(6-amino-5-(trifluoromethyl)pyridin-3-yl)imidazo[1,2-a]pyridin-2-yl)-2-(1-ethylpyrrolidn-3-yloxy)acetamide], for which, at PI3 K Alpha (read-out: PI3K Alpha IC50), the IC50 is below 1 µM. The EC50 with A2780 cells was below 10 µM.

Consider `NC(=O)N1CC[C@H]1C(=O)Nc1cn2cc(-c3cnc(N)c(C(F)(F)F)c3)ccc2n1` [Example 148, (S)-N2-(6-(6-amino-5-(trifluoromethyl)pyridin-3-yl)imidazo[1,2-a]pyridin-2-yl)azetidine-1,2-dicarboxamide], for which the IC50 at PI3 K Alpha (read-out: PI3K Alpha IC50) was below 1 µM. Further, in the assay with A2780 cells, the EC50 was below 25 µM.

Consider `CC(C)(C)OC(=O)N1CC[C@H]1C(=O)Nc1cn2cc(-c3cnc(N)c(C(F)(F)F)c3)ccc2n1` [Example 169, (S)-tert-butyl 2-(6-(6-amino-5-(trifluoromethyl)pyridin-3-yl)imidazo[1,2-a]pyridin-2-ylcarbamoyl) azetidine-1-carboxylate], for which the IC50 on PI3 K Alpha (read-out: PI3K Alpha IC50) was below 1 µM. Further, the EC50 in the assay on A2780 cells is below 25 µM.

As to `CC(=O)Nc1nc2ccc(-c3cnc(N)nc3C(F)(F)F)cc2s1` [Example 2-13, N-[6-(2-Amino-4-trifluoromethyl-pyrimidin-5-yl)-benzothiazol-2-yl]-acetamide], the IC50 on PI3 K Alpha (ATP depletion assay, read-out: PI3 K Alpha IC50) is below 1 µM. Also, the EC50 in the assay on A2780 cells (72 hrs) is below 25 µM.

For the molecule `CC(C)(C)OC(=O)N1CC(C(=O)Nc2cn3cc(-c4cnc(N)c(C(F)(F)F)c4)ccc3n2)C1` [Example 234, tert-butyl 3-(6-(6-amino-5-(trifluoromethyl)pyridin-3-yl)imidazo[1,2-a]pyridin-2-ylcarbamoyl) azetidine-1-carboxylate], the IC50 on PI3 K Alpha (read-out: PI3K Alpha IC50) is below 1 µM. In addition, the concentration giving a half-maximal response (EC50) in the assay on A2780 cells was below 10 µM.

As to `NCCC(=O)Nc1cn2nc(-c3cnc(N)c(C(F)(F)F)c3)ccc2n1` [Example 246, 3-amino-N-(6-(6-amino-5-(trifluoromethyl)pyridin-3-yl)imidazo[1,2-b]pyridazin-2-yl)propanamide], the concentration for half-maximal inhibition (IC50) on PI3 K Alpha (read-out: PI3K Alpha IC50) is below 1 µM. For the same molecule, the EC50 with A2780 cells was below 10 µM.

On to `Nc1ncc(-c2ccc3nc(NC(=O)N4CC[C@H]4C(=O)O)cn3c2)cc1C(F)(F)F` [Example 45, (S)-1-(6-(6-amino-5-(trifluoromethyl)pyridin-3-yl)imidazo[1,2-a]pyridin-2-ylcarbamoyl) azetidine-2-carboxylic acid], for which, at PI3 K Alpha (read-out: PI3K Alpha IC50), the IC50 was below 10 µM. The EC50 in the assay with A2780 cells was below 25 µM.

`Nc1ncc(-c2ccc3nc(NC(=O)COCc4ccccc4)cn3n2)cc1C(F)(F)F` [Example 217, N-(6-(6-amino-5-(trifluoromethyl)pyridin-3-yl)imidazo[1,2-b]pyridazin-2-yl)-2-(benzyloxy) acetamide]: on PI3 K Alpha (read-out: PI3K Alpha IC50), the IC50 is below 1 µM. Also, in the assay with A2780 cells, the EC50 is below 10 µM.

`CC(=O)Nc1cn2cc(-c3cnc(N)c(C(=O)N4CCCC4)c3)ccc2n1` [Example 155, N-(6-(6-amino-5-(pyrrolidine-1-carbonyl)pyridin-3-yl)imidazo[1,2-a]pyridin-2-yl)acetamide]: the IC50 at PI3 K Alpha (read-out: PI3K Alpha IC50) is below 1 µM. The EC50 in the assay with A2780 cells was below 25 µM.

Turning to `CC(=O)Nc1cn2cc(-c3cnc(N)c(/C=N/OC(C)(C)C)c3)ccc2n1` [Example 157, (E)-N-(6-(6-amino-5-((tert-butoxyimino)methyl)pyridin-3-yl)imidazo[1,2-a]pyridin-2-yl)acetamide], the IC50 at PI3 K Alpha (read-out: PI3K Alpha IC50) is below 1 µM. In addition, the EC50 with A2780 cells is below 25 µM.

Regarding `CC(C)(C)OC(=O)N1CC(C(=O)Nc2cn3nc(-c4cnc(N)c(C(F)(F)F)c4)ccc3n2)C1` [Example 197, tert-butyl 3-(6-(6-amino-5-(trifluoromethyl)pyridin-3-yl)imidazo[1,2-b]pyridazin-2-ylcarbamoyl) azetidine-1-carboxylate], the IC50 on PI3 K Alpha (read-out: PI3K Alpha IC50) is below 1 µM. The EC50 in the assay with A2780 cells is below 10 µM.

As a reminder, the IC50 is the concentration that gives 50% inhibition. In general, EC50 refers to the concentration at which the effect is half-maximal.
